Laboratory results reported in ChEMBL document CHEMBL4725267, “Design and synthesis of potent inhibitors of bc complex based on natural product neopeltolide” (Bioorg Med Chem Lett, 2020).

Tests used:
[1] = species: Sus scrofa; assay: (§1) Inhibition of porcine heart Succinate-cytochrome c reductase complex 2 by measuring decrease in DCIP at 10 uM relative to control; format: tissue-based
[2] = species: Sus scrofa; assay: Inhibition of porcine heart Succinate-cytochrome c reductase complex 2 by measuring decrease in DCIP at 1 uM relative to control; format: tissue-based
[3] = Inhibition of bovine heart mitochondrial cytochrome bc1 complex; format: mitochondria, Bos taurus, Mitochondria
[4] = Inhibition of porcine heart Succinate-cytochrome c reductase complex 2 by measuring decrease in DCIP; format: tissue-based, Sus scrofa
[5] = as §1; format: tissue-based, Sus scrofa

Compound	inhibition [1] [%]	further results
COC(=O)NC/C=C\c1nc(C(=O)OCc2cccc3c2c(Cl)cn3Cc2cc(C)cc(C)c2)co1	27	
COC(=O)NC/C=C\c1nc(C(=O)OCc2cccc3c2c(Cl)cn3Cc2ccc(Cl)cc2)co1	31	
COC(=O)NC/C=C\c1nc(C(=O)Nc2cccc3c2ccn3Cc2ccc(C)cc2)co1		inhibition [2]: 55%
COC(=O)NC/C=C\c1nc(C(=O)OCc2cccc3c2c(Cl)cn3Cc2ccc(C)cc2)co1	11	
COC(=O)NC/C=C\c1nc(C(=O)OCc2cccc3c2c(Cl)cn3Cc2ccccc2Cl)co1	31	
COC(=O)NC/C=C\c1nc(C(=O)OCc2cccc3c2c(Cl)cn3C)co1	< 10	
CCC[C@H]1C[C@@H](OC)C[C@H](C)C[C@@H]2C[C@@H](OC(=O)/C=C\CCc3coc(/C=C\CNC(=O)OC)n3)C[C@H](CC(=O)O1)O2		IC50 [3]: 2 nM
C=CCn1cc(Cl)c2c(COC(=O)c3coc(/C=C\CNC(=O)OC)n3)cccc21	21	
COC(=O)NC/C=C\c1nc(C(=O)OCc2cccc3c2c(Cl)cn3Cc2ccc(F)cc2F)co1	46	
COC(=O)NC/C=C\c1nc(C(=O)OCc2cccc3c2c(Cl)cn3Cc2ccccc2Br)co1	33	
COC(=O)NC/C=C\c1nc(C(=O)OCc2cccc3c2c(Cl)cn3Cc2cccc(Br)c2)co1	34	
COC(=O)NC/C=C\c1nc(C(=O)OCc2cccc3[nH]cc(Cl)c23)co1	12	
COC(=O)NC/C=C\c1nc(C(=O)Nc2cccc3c2ccn3Cc2cccc(F)c2)co1		IC50 [4]: 1750 nM
COC(=O)NC/C=C\c1nc(C(=O)Nc2cccc3c2ccn3Cc2ccc(F)cc2)co1		IC50 [4]: 1460 nM
CO/C=C(/C(=O)OC)c1ccccc1Oc1cc(Oc2ccccc2C#N)ncn1 [AZOXYSTROBIN]		IC50 [5]: 700 nM
COC(=O)NC/C=C\c1nc(C(=O)Nc2cccc3c2ccn3Cc2cccc(C)c2)co1		IC50 [4]: 700 nM
COC(=O)NC/C=C\c1nc(C(=O)OCc2cccc3c2c(Cl)cn3Cc2ccccc2C)co1	47	
COC(=O)NC/C=C\c1nc(C(=O)Nc2cccc3c2ccn3Cc2ccccc2F)co1		IC50 [4]: 1340 nM
COC(=O)NC/C=C\c1nc(C(=O)OCc2cccc3c2c(Cl)cn3Cc2ccc(Br)cc2)co1	14	
COC(=O)NC/C=C\c1nc(C(=O)OCc2cccc3c2c(Cl)cn3Cc2ccccc2)co1	41	
COC(=O)NC/C=C\c1nc(C(=O)OCc2cccc3c2c(Cl)cn3Cc2cccc(F)c2)co1	32	
COC(=O)NC/C=C\c1nc(C(=O)OCc2cccc3c2c(Cl)cn3Cc2ccc(F)cc2)co1	46	
C#CCn1cc(Cl)c2c(COC(=O)c3coc(/C=C\CNC(=O)OC)n3)cccc21	25	
COC(=O)NC/C=C\c1nc(C(=O)OCc2cccc3c2c(Cl)cn3Cc2cccc(C)c2)co1	49	
CCn1cc(Cl)c2c(COC(=O)c3coc(/C=C\CNC(=O)OC)n3)cccc21	< 10	
COC(=O)NC/C=C\c1nc(C(=O)Nc2cccc3c2ccn3Cc2ccccc2C)co1		inhibition [2]: 65%
CCCn1cc(Cl)c2c(COC(=O)c3coc(/C=C\CNC(=O)OC)n3)cccc21	24	
COC(=O)NC/C=C\c1nc(C(=O)OCc2cccc3c2c(Cl)cn3Cc2ccccc2F)co1	50	
COC(=O)NC/C=C\c1nc(C(=O)OCc2cccc3c2c(Cl)cn3Cc2cccc(Cl)c2)co1	23	
